From patent publication US20160279190A1, “MODULATION OF AXON DEGENERATION” (GENENTECH, INC., priority 2008, published 2016)
“Also recorded” adds a separate entry of the source. Starred links: 1 amine or outer side, 2 acyl side, 3 side chain; linkers in the order of their positions; H or OH if unused. Positions of bridges follow the written chain, without caps; N, C: chain ends. Non-standard residues stand in square brackets, D forms with d. Residues, ends and D or L forms follow the SMILES beside them. Chains are numbered I, II in the order given. Actinocin(9to1) = Cc1c2oc3c(C)ccc(C(=O)[*:1])c3nc-2c(C(=O)[*:2])c(N)c1=O; NMeV = CN[C@H](C(=O)O)C(C)C; Sar = CNCC(=O)O

Legend:
DRGs [1] = assay: Campenot chamber local axon degeneration, anti-NGF in axon compartment; type: cell-based, mouse; details: for Axon Compartment (axon protected when inhibitor is in axon compartment) / Cell Body Compartment (axon protected when inhibitor is in cell body compartment): anti-NGF in axon compartment, 28 hours
Experimental: Teflon dividers (Tyler Research) were cleaned by washing in water and wiping them clean of any residual grease. Dividers were then soaked in Nochromix (Godax Laboratories)/sulfuric acid overnight, rinsed five times in distilled and autoclaved water (SQ water), boiled for 30 minutes, and then air-dried before use.
Mouse laminin (5 μg/ml in sterile filtered water; Invitrogen) was added to PDL coated 35 mm dishes (BD Biosciences) and they were incubated for 1 hour at 37° C., followed by two rinses in SQ water. The dishes were vacuum-dried and then air-dried in a laminar flow hood for 15 minutes. Prepared dishes were then scored with a pin rake (Tyler Research). […] High vacuum grease (VWR) was added to each Teflon divider under a dissection scope. The laminin coated PDL dishes were inverted and dropped onto the Teflon divider, with additional pressure added by use of a toothpick in the non-track-containing regions. Dishes were incubated for 1 hour at 37° C. Five hundred microliters of NBM+MC (50 ng/ml NGF) solution was added to each of the side compartments, and a grease barrier was added in front of the center cell slot.
Free E13.5 spinal cords were dissected from mouse embryos and placed into NBM+MC (25 ng/ml NGF) solution. DRGs were detached from the spinal cord with a tungsten needle. An NBM+MC-lubricated P200 pipette was used to move DRGs into a 1.5 ml tube. DRGs were pelleted with a tabletop centrifuge for 30 seconds. The supernate was discarded and 0.05% Trypsin/EDTA (cold) was added. The pellet was resolubilized with a pipette and incubated at 37° C. for 15 minutes with constant agitation (650 RPM). The sample was again centrifuged and the supernate discarded. The pellet was resuspended in warm NBM+MC (50 ng/ml NGF) solution and triturated with a flamed glass pipette 20 times, followed by trituration with a fire-bored glass pipette another 20 times. The samples were again centrifuged and the resulting pellets were resuspended in 0.5 ml NBM+MC (50 ng/ml NGF) solution. The cells were diluted to a final concentration of 2.5×10^6 cells/ml. The cell suspensions were loaded into a 1 ml syringe with a 22 gauge needle. The center slot of the Campenot divider was filled using the syringe (to a volume of at least 50 μl). The Campenot chamber was incubated overnight at 37° C. 2.5 ml NGF+MC (50 ng/ml NGF) solution was added to the center compartment and the grease gate was removed. The outer medium (cell body compartment) was replaced after three days with 2.5 ml NBM+MC medium (with 25 ng/ml NGF). After five days in culture, one distal compartment was washed three times with warmed NBM+MC (no NGF) solution. After the third wash, 500 μl NBM+MC (no NGF) solution was added to the axon compartment in combination with either 0.5% DMSO or an inhibitor. The cell body compartment was replaced with 2.5 ml NBM+MC medium (with 25 ng/ml NGF) containing either 0.5% DMSO or inhibitor.
After 28 hours of anti-NGF antibody treatment, 8% PFA/30% sucrose solution (see above) was added directly to the culture medium at a 1:1 dilution and incubated for 30 minutes. The Teflon divider was removed after the first 15 minutes of addition. The system was washed once with 2.5 ml PBS prior to immunostaining. Neurons were blocked in 5% BSA/0.2% triton in PBS for 30 minutes. The primary antibody Tuj1 (Covance) was added to a final dilution of 1:1000 in PBS containing 2% BSA and incubated overnight at 4° C. The dish was washed once with PBS. […] The dish was washed twice with PBS, and a 22×22 mm coverslip (VWR) was added with 350 μl of fluoromount G (Electron Microscopy Sciences). The neurons were visualized by use of a fluorescence microscope.
As described above, E13.5 DRGs were isolated and grown for 5 days in a Campenot chamber.

DRGs [2] = assay: anti-NGF antibody (NGF withdrawal) screen for inhibitors of neuron or axon degeneration; type: cell-based, mouse; details: inhibitor 100 μM or 10 μM added 1 hour before 25 μg/ml anti-NGF antibodies; 20 hours; actin staining
Experimental: The anti-NGF antibody model described above in Example 1 was used in a screen for inhibitors of neuron or axon degeneration. A library of more than 400 small molecules (Tocris Bioscience) was tested to see which, if any, modulate degeneration observed in the presence of anti-NGF antibodies.
Mouse E13.5 embryos were dissected and placed into L15 medium (Invitrogen). The spinal cord was dissected out from the embryos with DRGs attached. The spinal cords with DRGs attached were placed into L15 medium+5% goat serum (Gibco) on ice. The DRGs were removed using a tungsten needle and the remaining spinal cord was disposed of. Eight well slides were filled with N3-F12 solution (23 ml Ham's F12, 1 ml N3 supplement, and 1 ml 1 M glucose) to which was added 25 ng/ml NGF (Roche). (N3 supplement was made by dilution of N3 100× concentrate, which was made by mixing the following ingredients, in the following order: 5.0 ml Hank's buffered saline solution (HBSS; Ca, Mg free; Invitrogen), 1.0 ml bovine serum albumin (10 mg/ml in HBSS=150 μm), 2.0 ml Transferrin (T1147-1G, human, 100 mg/ml in HBSS=1.1 mM), 1.0 ml sodium selenite (S9133-1MG, 0.01 mg/ml in HBSS=58 μM), 0.4 ml putrescine dihydrochloride (P5780-5G, 80 mg/ml in HBSS=500 mM), 0.2 ml progesterone (P8783-5G, 0.125 mg/ml in absolute ethanol=400 μM), 0.02 ml corticosterone (C2505-500MG, 2 mg/ml in absolute ethanol=5.8 mM), 0.1 ml triiodothyonine, sodium salt (T6397-100MG, 0.2 mg/ml in 0.01 N NaOH=300 μM), 0.4 ml insulin (16634-250MG, bovine pancreas, 241 U/mg, 25 mg/ml in 20 mM HCl=4.4 mM), for a total volume of 10.02 ml (can be stored at −20° C.). An N3 supplement stock was made by combining the following: 10 ml Pen/Strep (100×, Gibco), 10 ml glutamine (200 mM, Gibco), 10 ml MEM vitamins (100×, Gibco), 10 ml N3 concentrate (100×, see above), for a total volume of 40 ml. The mixture was filter sterilized using a 0.22 μm filter, and 1-2 ml aliquots were stored at −20° C.).
The DRGs were sectioned into halves, and placed in the center of each well of an 8-chamber slide (BD Biocoat PDL/Laminin coated glass, Becton Dickinson). The DRGs were permitted to attach to the slide at room temperature for 5-10 minutes, followed by an overnight incubation at 37° C. Inhibitors of choice were added at a concentration of 100 μM (top row) or 10 μM (bottom row) 1 hour before adding anti-NGF antibodies. The anti-NGF antibodies were added to the right half of the slide (4 wells) at a concentration of 25 μg/ml. After incubation for 20 hours at 37° C., the slides were fixed with 30% sucrose/8% paraformaldehyde (PFA) by adding 250 μl of the fix solution directly to the 250 μl of culture medium. (To make the 30% sucrose/8% PFA solution, the following ingredients were added to a 600 ml beaker including a stir bar: 250 ml 16% PFA (cat#15710-S, Electron Microscopy Sciences), 50 ml 10×PBS pH 7.4, and 150 g sucrose. The solution was mixed under low heat until dissolved, and then 6-8 drops of 1 M NaOH were added to bring the pH to 7.4. The volume was then brought to 500 ml with water in a graduated cylinder. The solution was mixed well, placed in aliquots, and frozen.) The slides were fixed for 30 minutes, followed by washing once with PBS. All cells were labeled with an actin stain (Alexa-568 conjugated phalloidin; 1:40; Invitrogen), a membrane dye (DiO; 1:200; Invitrogen), and a DNA stain (Hoechst 33258; 1:10,000; Invitrogen) in 0.1% Triton and 1% goat serum for 2 hours at room temperature. […]

DRG explants = assay: pan-JNK inhibitors in DRG explants, NGF withdrawal assay; type: cell-based; details: anti-NGF plus inhibitor (FIG. 46)
Experimental: If DLK inhibition protects neurons from degeneration through limiting the phosphorylation of JNK2 and JNK3, then inhibitors of JNK2 or JNK3 should also protect neurons from cell death and axon degeneration. The ability of direct JNK inhibition to protect neurons against NGF withdrawal-dependent degeneration was also assessed. DRG explants were treated with anti-NGF and either pan-JNK inhibitor JNKV or JNKVIII, prior to assessment in the NGF withdrawal assay described above.

[3] = inhibitor 15 μM, listed as Act D

C[C@@H]1C[C@@H]([C@H](O)CC2CC(=O)NC(=O)C2)C(=O)[C@@H](C)C1 [Cycloheximide]
Axon Compartment (axon protected when inhibitor is in axon compartment) (DRGs [1]; inhibitor 5 μM): No (2)
Cell Body Compartment (axon protected when inhibitor is in cell body compartment) (DRGs [1]; inhibitor 5 μM): Yes (2)

C=C[C@@]1(C)CC(=O)[C@]2(O)[C@@]3(C)[C@@H](O)CCC(C)(C)[C@@H]3[C@H](O)[C@H](OC(C)=O)[C@@]2(C)O1 [Forskolin]
Axon Compartment (axon protected when inhibitor is in axon compartment) (DRGs [1]; inhibitor 3 μM): Yes (2)
Cell Body Compartment (axon protected when inhibitor is in cell body compartment) (DRGs [1]; inhibitor 3 μM): Yes (2)

C=C[C@@]1(C)CC(=O)[C@]2(O)[C@@]3(C)[C@@H](O)CCC(C)(C)[C@@H]3[C@H](OC(=O)CCN(C)C)[C@H](OC(C)=O)[C@@]2(C)O1 [NKH 477]
Comments (observations on protection against neurodegeneration upon NGF withdrawal) (DRGs [2]): Partial

COc1ccc(CNC(=O)Nc2ncc([N+](=O)[O-])s2)cc1 [AR-A014418]
Axon Compartment (axon protected when inhibitor is in axon compartment) (DRGs [1]; inhibitor 20 μM): No (1)
Cell Body Compartment (axon protected when inhibitor is in cell body compartment) (DRGs [1]; inhibitor 20 μM): Yes (1)

CCN(c1ccccc1)c1cc(NC)[n+](C)c(C)n1.[Cl-] [ZD7288]
Axon Compartment (axon protected when inhibitor is in axon compartment) (DRGs [1]; inhibitor 5 μM): No (3)
Cell Body Compartment (axon protected when inhibitor is in cell body compartment) (DRGs [1]; inhibitor 5 μM): Yes (3)

CC(NC(=O)/C(C#N)=C/c1ccc(O)c(O)c1)c1ccccc1 (centres unmarked) [Tyrphostin B44]
Comments (observations on protection against neurodegeneration upon NGF withdrawal) (DRGs [2]): Partial

C[S+]([O-])c1ccc(-c2nc(-c3ccc(F)cc3)c(-c3ccncc3)[nH]2)cc1.Cl (centres unmarked) [SB 203580 HCI]
Comments (observations on protection against neurodegeneration upon NGF withdrawal) (DRGs [2]): Partial

N#C/C(=C1/Nc2ccccc2S1)c1ccnc(NCCc2cccnc2)n1 [JNKV]
most protective concentration (DRG explants): 5 µM
protection of DRG explants from NGF-dependent degeneration (DRG explants): able to protect DRG explants from NGF-dependent degeneration

CCOc1nc(NC(=O)Cc2cc(OC)ccc2OC)cc(N)c1C#N [JNKVIII]
most protective concentration (DRG explants): 4 µM
protection of DRG explants from NGF-dependent degeneration (DRG explants): able to protect DRG explants from NGF-dependent degeneration

O=C1NC(=O)C(c2cn(CCCO)c3ncccc23)=C1c1cnccn1 [GSK3 inhibitor XI]
Axon Compartment (axon protected when inhibitor is in axon compartment) (DRGs [1]; inhibitor 30 μM): No (2)
Cell Body Compartment (axon protected when inhibitor is in cell body compartment) (DRGs [1]; inhibitor 30 μM): Yes (2)

OC(CN1CCNCC1)Cn1c2ccc(Br)cc2c2cc(Br)ccc21 (centres unmarked) [Bax Channel Blocker]
Comments (observations on protection against neurodegeneration upon NGF withdrawal) (DRGs [2]): Cell bodies detach

Cc1c2oc3c(C)ccc(C(=O)N[C@@H]4C(=O)N[C@H](C(C)C)C(=O)N5CCC[C@H]5C(=O)N(C)CC(=O)N(C)[C@@H](C(C)C)C(=O)O[C@@H]4C)c3nc-2c(C(=O)N[C@@H]2C(=O)N[C@H](C(C)C)C(=O)N3CCC[C@H]3C(=O)N(C)CC(=O)N(C)[C@@H](C(C)C)C(=O)O[C@@H]2C)c(N)c1=O [Actinomycin D] (I: T[dV]P[Sar][NMeV] / II: T[dV]P[Sar][NMeV]; ester I:1-I:C, II:1-II:C; linker I:N-II:N via Actinocin(9to1))
formation of varicosities in locally NGF-deprived axons (DRGs [1]; cell body inhibitors added to cell body compartment: 30 μM SB415, 15 μM Act D): large number of axons with varicosities, as well as fragmented axons
Axon Compartment (axon protected when inhibitor is in axon compartment) (DRGs [1]; inhibitor 15 μM): No (4)
Cell Body Compartment (axon protected when inhibitor is in cell body compartment) (DRGs [1]; inhibitor 15 μM): Yes (4)
Axon Compartment (axon protected when inhibitor is in axon compartment) (DRGs [1]; [3]): failed to prevent degeneration
Cell Body Compartment (axon protected when inhibitor is in cell body compartment) (DRGs [1]; [3]): did not degenerate; also recorded: protected from local degeneration
